Molecular target: T1, human P2X4 (Homo sapiens, UniProt Q99571)
T1 sequence (Q99571 1-388): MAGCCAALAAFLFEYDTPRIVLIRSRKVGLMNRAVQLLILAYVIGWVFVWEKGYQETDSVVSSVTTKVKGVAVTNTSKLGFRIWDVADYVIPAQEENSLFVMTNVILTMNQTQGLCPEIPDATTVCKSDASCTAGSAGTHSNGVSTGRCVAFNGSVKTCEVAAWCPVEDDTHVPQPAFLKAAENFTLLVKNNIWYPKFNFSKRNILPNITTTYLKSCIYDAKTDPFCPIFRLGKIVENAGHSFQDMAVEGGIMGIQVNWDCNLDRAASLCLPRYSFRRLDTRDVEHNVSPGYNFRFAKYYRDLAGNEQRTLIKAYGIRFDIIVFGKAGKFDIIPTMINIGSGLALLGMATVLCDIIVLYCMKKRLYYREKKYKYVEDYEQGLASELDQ
Assay: Human P2X4 HEK Cell FLIPR Assay
Type: cell-based
Settings: agonist Bz-ATP at EC80; for Emax: HEK293, HEK293 cells, percentage of maximal inhibition, read-out: Human P2X4 HEK Cells (FLIPR Assay) avg Efficacy [%]; for IC50: HEK293 cells, individual values listed where some fall outside detection range
Protocol: HEK293 cells stably expressing human P2X4 were plated in poly-D-lysine-coated 384-well plates at a seeding density of 30000 cells/well and incubated overnight. P2X4 function was assessed by measuring intracellular calcium changes using the calcium-chelating dye Fluo8-AM (Molecular Devices) on a fluorescent imaging plate reader (FLEX/FLIPR station; Molecular Devices). On the day of the assay, the medium was removed and the cells were incubated for 30 min at 37° C. and 5% CO2 in 30 μL of dye buffer (Hank's balanced salt solution, 10 mM HEPES, 1.8 mM CaCl2, 1 mM MgCl2, 2 mM probenecid, 5 mM D-glucose monohydrate, 5 μM Fluo8-AM, pH=7.4). Compounds diluted in probenecid buffer (Hank's balanced salt solution, 10 mM HEPES, 1.8 mM CaCl2, 1 mM MgCl2, 2 mM probenecid, 5 mM D-glucose monohydrate, pH=7.4) were added in a volume of 10 μL and allowed to incubate for 30 min at room temperature. The final assay DMSO concentration was 0.5%. The agonist, Bz-ATP (Tocris), was added in a volume of 10 μL at a concentration representing the EC80 value. The EC80 value of Bz-ATP was determined each assay day prior to compound profiling. The fluorescence was measured for an interval of 120 sec at 2 sec intervals. The excitation and emission wavelengths used to monitor fluorescence were 470-495 nm and 515-575 nm, respectively. The data was analyzed based on the increase in peak relative fluorescence units (RFU) compared to the basal fluorescence and the data was normalized to the agonist control. The compounds were tested in triplicates per plate and mean values were plotted in Excel XLFit to determine IC50 values, percentage of maximal inhibition and the Hill coefficients.

Emax | IC50 | SMILES
74% | 70 nM | CC(C)Oc1cnn(-c2ccc(NC(=O)Cc3ccccc3Cl)cc2S(N)(=O)=O)c1 [Example 27, 2-(2-Chlorophenyl)-N-[4-(4-isopropoxy-1H-pyrazol-1-yl)-3-sulfamoylphenyl]-acetamide]
75% | 113 nM | CC(C)Cc1ncn(-c2ccc(NC(=O)Cc3ccccc3Cl)cc2S(N)(=O)=O)n1 [Example 29, 2-(2-Chlorophenyl)-N-[4-(3-isobutyl-1H-1,2,4-triazol-1-yl)-3-sulfamoylphenyl]-acetamide]
87% | 222 nM | CSc1cnn(-c2ccc(NC(=O)Cc3ccccc3Cl)cc2S(N)(=O)=O)c1 [Example 30, 2-(2-Chlorophenyl)-N-{4-[4-(methylsulfanyl)-1H-pyrazol-1-yl]-3-sulfamoylphenyl}-acetamide]
81% | 112 nM | COc1cnn(-c2ccc(NC(=O)Cc3ccccc3Cl)cc2S(N)(=O)=O)c1 [Example 31, 2-(2-Chlorophenyl)-N-[4-(4-methoxy-1H-pyrazol-1-yl)-3-sulfamoylphenyl]acetamide]
93% | 139 nM | NS(=O)(=O)c1cc(NC(=O)Cc2ccccc2Cl)ccc1-n1cnc2ccccc21 [Example 32, N-[4-(1H-Benzimidazol-1-yl)-3-sulfamoylphenyl]-2-(2-chlorophenyl)acetamide]
79% | 31 nM | NS(=O)(=O)c1cc(NC(=O)Cc2ccccc2Cl)ccc1-n1cnc(Cl)c1 [Example 33, N-[4-(4-Chloro-1H-imidazol-1-yl)-3-sulfamoylphenyl]-2-(2-chlorophenyl)acetamide]
79% | 448 nM | CN(C)c1ncn(-c2ccc(NC(=O)Cc3ccccc3Cl)cc2S(N)(=O)=O)n1 [Example 34, 2-(2-Chlorophenyl)-N-{4-[3-(dimethylamino)-1H-1,2,4-triazol-1-yl]-3-sulfamoyl-phenyl}acetamide]
90% | 224 nM | CCc1ncn(-c2ccc(NC(=O)Cc3ccccc3Cl)cc2S(N)(=O)=O)n1 [Example 35, 2-(2-Chlorophenyl)-N-[4-(3-ethyl-1H-1,2,4-triazol-1-yl)-3-sulfamoylphenyl]acetamide]
81% | 667 nM | NS(=O)(=O)c1cc(NC(=O)Cc2ccccc2Cl)ccc1-n1cnc(C2CC2)n1 [Example 36, (2-Chlorophenyl)-N-[4-(3-cyclopropyl-1H-1,2,4-triazol-1-yl)-3-sulfamoylphenyl]-acetamide]
81% | 848 nM | NS(=O)(=O)c1cc(NC(=O)Cc2ccccc2Cl)ccc1-n1ncnc1C1CC1 [Example 37, 2-(2-Chlorophenyl)-N-[4-(5-cyclopropyl-1H-1,2,4-triazol-1-yl)-3-sulfamoyl-phenyl]acetamide]
87% | 329 nM | COCc1ncn(-c2ccc(NC(=O)Cc3ccccc3Cl)cc2S(N)(=O)=O)n1 [Example 38, 2-(2-Chlorophenyl)-N-{4-[3-(methoxymethyl)-1H-1,2,4-triazol-1-yl]-3-sulfamoyl-phenyl}acetamide]
90% | 1240 nM | CC(C)(C)c1cn(-c2ccc(NC(=O)Cc3ccccc3Cl)cc2S(N)(=O)=O)cn1 [Example 40, N-[4-(4-tert-Butyl-1H-imidazol-1-yl)-3-sulfamoylphenyl]-2-(2-chlorophenyl)acetamide]
70% | 357 nM | N#Cc1ncn(-c2ccc(NC(=O)Cc3ccccc3Cl)cc2S(N)(=O)=O)n1 [Example 41, 2-(2-Chlorophenyl)-N-[4-(3-cyano-1H-1,2,4-triazol-1-yl)-3-sulfamoylphenyl]acetamide]
71% | 24 nM | NS(=O)(=O)c1cc(NC(=O)Cc2ccccc2Cl)ccc1-n1cnc(Br)c1 [Example 42, N-[4-(4-Bromo-1H-imidazol-1-yl)-3-sulfamoylphenyl]-2-(2-chlorophenyl)acetamide]
87% | 210 nM | NS(=O)(=O)c1cc(NC(=O)Cc2ccccc2Cl)ccc1-n1cnc2cccnc21 [Example 43, 2-(2-Chlorophenyl)-N-[4-(3H-imidazo[4,5-b]pyridin-3-yl)-3-sulfamoylphenyl]-acetamide]
97% | 378 nM | NS(=O)(=O)c1cc(NC(=O)Cc2ccccc2Cl)ccc1-n1cnc2ncccc21 [Example 44, 2-(2-Chlorophenyl)-N-[4-(1H-imidazo[4,5-b]pyridin-1-yl)-3-sulfamoylphenyl]-acetamide]
74% | 75 nM | NS(=O)(=O)c1cc(NC(=O)Cc2ccccc2Cl)ccc1-n1cnc2cnccc21 [Example 45, 2-(2-Chlorophenyl)-N-[4-(1H-imidazo[4,5-c]pyridin-1-yl)-3-sulfamoylphenyl]-acetamide]
87% | 916 nM | NS(=O)(=O)c1cc(NC(=O)Cc2ccccc2Cl)ccc1-n1cnc2ccncc21 [Example 46, 2-(2-Chlorophenyl)-N-[4-(3H-imidazo[4,5-c]pyridin-3-yl)-3-sulfamoylphenyl]-acetamide]
66% | 472 nM | Cc1cn(-c2ccc(NC(=O)Cc3ccccc3Cl)cc2S(N)(=O)=O)c(C)n1 [Example 47, 2-(2-Chlorophenyl)-N-[4-(2,4-dimethyl-1H-imidazol-1-yl)-3-sulfamoylphenyl]-acetamide]
82% | 297 nM | NS(=O)(=O)c1cc(NC(=O)Cc2ccccc2F)ccc1-n1cc(F)cn1 [Example 48, 2-(2-Fluorophenyl)-N-[4-(4-fluoro-1H-pyrazol-1-yl)-3-sulfamoylphenyl]acetamide]
94% | 135 nM | NS(=O)(=O)c1cc(NC(=O)Cc2ccccc2C(F)F)ccc1-n1cc(Cl)cn1 [Example 49, N-[4-(4-Chloro-1H-pyrazol-1-yl)-3-sulfamoylphenyl]-2-[2-(difluoromethyl)-phenyl]acetamide]
88% | 149 nM | NS(=O)(=O)c1cc(NC(=O)Cc2ccccc2F)ccc1-n1cc(Cl)cn1 [Example 50, N-[4-(4-Chloro-1H-pyrazol-1-yl)-3-sulfamoylphenyl]-2-(2-fluorophenyl)acetamide]
94% | 134 nM | NS(=O)(=O)c1cc(NC(=O)Cc2ccccc2C(F)F)ccc1-n1cc(F)cn1 [Example 51, 2-[2-(Difluoromethyl)phenyl]-N-[4-(4-fluoro-1H-pyrazol-1-yl)-3-sulfamoyl-phenyl]acetamide]
82% | 154 nM | N#Cc1cnn(-c2ccc(NC(=O)Cc3ccccc3F)cc2S(N)(=O)=O)c1 [Example 52, N-[4-(4-Cyano-1H-pyrazol-1-yl)-3-sulfamoylphenyl]-2-(2-fluorophenyl)acetamide]
52% | 169 nM | COc1ccccc1CC(=O)Nc1ccc(-n2cnc(C(F)(F)F)n2)c(S(N)(=O)=O)c1 [Example 53, 2-(2-Methoxyphenyl)-N-{3-sulfamoyl-4-[3-(trifluoromethyl)-1H-1,2,4-triazol-1-yl]-phenyl}acetamide]
75% | 557 nM | NS(=O)(=O)c1cc(NC(=O)Cc2ccccc2F)ccc1-n1cnc(C(F)(F)F)n1 [Example 54, 2-(2-Fluorophenyl)-N-{3-sulfamoyl-4-[3-(trifluoromethyl)-1H-1,2,4-triazol-1-yl]phenyl}acetamide]
74% | 1400 nM | NS(=O)(=O)c1cc(NC(=O)Cc2cccc(F)c2)ccc1-n1cnc(C(F)(F)F)n1 [Example 55, 2-(3-Fluorophenyl)-N-{3-sulfamoyl-4-[3-(trifluoromethyl)-1H-1,2,4-triazol-1-yl]-phenyl}acetamide]
70% | 121 nM | NS(=O)(=O)c1cc(NC(=O)Cc2ccc(F)cc2Cl)ccc1-n1cnc(C(F)(F)F)n1 [Example 56, 2-(2-Chloro-4-fluorophenyl)-N-{3-sulfamoyl-4-[3-(trifluoromethyl)-1H-1,2,4-triazol-1-yl]phenyl}acetamide]
71% | 141 nM | NS(=O)(=O)c1cc(NC(=O)Cc2ccccc2OC(F)F)ccc1-n1cnc(C(F)(F)F)n1 [Example 57, 2-[2-(Difluoromethoxy)phenyl]-N-{3-sulfamoyl-4-[3-(trifluoromethyl)-1H-1,2,4-triazol-1-yl]phenyl}acetamide]

— patent US11524938B2, “Aromatic sulfonamide derivatives” (Bayer Pharma Aktiengesellschaft, priority 2016, dated 2022)
